According to the NIST ThermoML archive (doi:10.1007/s10765-011-0995-x):
± gives the expanded uncertainty stated by the source.

Columns and labels:
[1] = xn = mol fraction of the nth substance listed; conditions: 308.15 K, 101 kPa, Liquid; for speed of sound: Pulse-echo method
[2] = refractive index (Na D-line) (dimensionless); xn = mol fraction of the nth substance listed; conditions: 101 kPa, Liquid, Standard Abbe refractometry

Compound Cc1cccc(Cl)c1 [3-chlorotoluene] + CCCCCCCCCCO has a speed of sound ([1]; x1 = 0.0745) of 1335 ± 1.3 m/s, a speed of sound ([1]; x1 = 0.1337) of 1325.8 ± 1.3 m/s and a speed of sound ([1]; x1 = 0.2017) of 1315.4 ± 1.3 m/s. It also gave a speed of sound ([1]; x1 = 0.2741) of 1305 ± 1.3 m/s, a speed of sound ([1]; x1 = 0.3471) of 1295.4 ± 1.3 m/s and a speed of sound ([1]; x1 = 0.4139) of 1287.6 ± 1.3 m/s. For the same compound, the speed of sound ([1]; x1 = 0.4616) was 1282.4 ± 1.3 m/s, the speed of sound ([1]; x1 = 0.5532) was 1273.9 ± 1.3 m/s and the speed of sound ([1]; x1 = 0.6282) was 1268.3 ± 1.3 m/s. It also gave a speed of sound ([1]; x1 = 0.6772) of 1265.4 ± 1.3 m/s, a speed of sound ([1]; x1 = 0.7447) of 1261.9 ± 1.3 m/s and a speed of sound ([1]; x1 = 0.8245) of 1258.4 ± 1.3 m/s. For the same compound, the speed of sound ([1]; x1 = 0.8876) was 1257.5 ± 1.3 m/s, the speed of sound ([1]; x1 = 0.9433) was 1257.8 ± 1.3 m/s and the speed of sound ([1]; x1 = 1) was 1262.1 ± 1.3 m/s. For the same compound, the mass density ([1]; x1 = 0.0745) was 830.88 ± 0.42 kg/m3, the viscosity ([1]; x1 = 0.0745) was 6.908 ± 0.071 mPa·s and the mass density ([1]; x1 = 0.1337) was 840.4 ± 0.41 kg/m3. The viscosity ([1]; x1 = 0.1337) was 6.001 ± 0.064 mPa·s, the mass density ([1]; x1 = 0.2017) was 851.82 ± 0.39 kg/m3 and the viscosity ([1]; x1 = 0.2017) was 5.022 ± 0.056 mPa·s. It also gave a mass density ([1]; x1 = 0.2741) of 864.64 ± 0.38 kg/m3, a viscosity ([1]; x1 = 0.2741) of 4.123 ± 0.047 mPa·s and a mass density ([1]; x1 = 0.3471) of 878.33 ± 0.36 kg/m3. The viscosity ([1]; x1 = 0.3471) was 3.348 ± 0.038 mPa·s, the mass density ([1]; x1 = 0.4139) was 891.6 ± 0.34 kg/m3 and the viscosity ([1]; x1 = 0.4139) was 2.771 ± 0.032 mPa·s. For the same compound, the mass density ([1]; x1 = 0.4616) was 901.59 ± 0.32 kg/m3, the viscosity ([1]; x1 = 0.4616) was 2.423 ± 0.028 mPa·s and the mass density ([1]; x1 = 0.5532) was 922.06 ± 0.29 kg/m3. It also gave a viscosity ([1]; x1 = 0.5532) of 1.862 ± 0.022 mPa·s, a mass density ([1]; x1 = 0.6282) of 940.26 ± 0.27 kg/m3 and a viscosity ([1]; x1 = 0.6282) of 1.521 ± 0.018 mPa·s. The mass density ([1]; x1 = 0.6772) was 952.94 ± 0.25 kg/m3, the viscosity ([1]; x1 = 0.6772) was 1.343 ± 0.016 mPa·s and the mass density ([1]; x1 = 0.7447) was 971.61 ± 0.23 kg/m3. It also gave a viscosity ([1]; x1 = 0.7447) of 1.142 ± 0.014 mPa·s, a mass density ([1]; x1 = 0.8245) of 995.7 ± 0.19 kg/m3 and a viscosity ([1]; x1 = 0.8245) of 0.96 ± 0.013 mPa·s. It also gave a mass density ([1]; x1 = 0.8876) of 1016.44 ± 0.21 kg/m3, a viscosity ([1]; x1 = 0.8876) of 0.851 ± 0.012 mPa·s and a mass density ([1]; x1 = 0.9433) of 1036.25 ± 0.25 kg/m3. The viscosity ([1]; x1 = 0.9433) was 0.777 ± 0.011 mPa·s, the mass density ([1]; x1 = 1) was 1058.33 ± 0.27 kg/m3 and the viscosity ([1]; x1 = 1) was 0.705 ± 0.01 mPa·s. For the same compound, the refractive index ([2]; 298.15 K, x1 = 0.0745) was 1.4371 ± 0.0005, the refractive index ([2]; 298.15 K, x1 = 0.1337) was 1.4394 ± 0.0005 and the refractive index ([2]; 298.15 K, x1 = 0.2017) was 1.4424 ± 0.0005. It also gave a refractive index ([2]; 298.15 K, x1 = 0.2741) of 1.446 ± 0.0005, a refractive index ([2]; 298.15 K, x1 = 0.3471) of 1.4501 ± 0.0005 and a refractive index ([2]; 298.15 K, x1 = 0.4139) of 1.4545 ± 0.0005. The refractive index ([2]; 298.15 K, x1 = 0.4616) was 1.4579 ± 0.0005, the refractive index ([2]; 298.15 K, x1 = 0.5532) was 1.4653 ± 0.0005 and the refractive index ([2]; 298.15 K, x1 = 0.6282) was 1.4723 ± 0.0005. The refractive index ([2]; 298.15 K, x1 = 0.6772) was 1.4772 ± 0.0005, the refractive index ([2]; 298.15 K, x1 = 0.7447) was 1.4847 ± 0.0005 and the refractive index ([2]; 298.15 K, x1 = 0.8245) was 1.4947 ± 0.0005. It also gave a refractive index ([2]; 298.15 K, x1 = 0.8876) of 1.5034 ± 0.0005, a refractive index ([2]; 298.15 K, x1 = 0.9433) of 1.5117 ± 0.0005 and a refractive index ([2]; 298.15 K, x1 = 1) of 1.5207 ± 0.0005. For the same compound, the refractive index ([2]; 303.15 K, x1 = 0.0745) was 1.4353 ± 0.0005, the refractive index ([2]; 303.15 K, x1 = 0.1337) was 1.4378 ± 0.0005 and the refractive index ([2]; 303.15 K, x1 = 0.2017) was 1.4408 ± 0.0005. It also gave a refractive index ([2]; 303.15 K, x1 = 0.2741) of 1.4445 ± 0.0005, a refractive index ([2]; 303.15 K, x1 = 0.3471) of 1.4488 ± 0.0005 and a refractive index ([2]; 303.15 K, x1 = 0.4139) of 1.4533 ± 0.0005. The refractive index ([2]; 303.15 K, x1 = 0.4616) was 1.4567 ± 0.0005, the refractive index ([2]; 303.15 K, x1 = 0.5532) was 1.4641 ± 0.0005 and the refractive index ([2]; 303.15 K, x1 = 0.6282) was 1.4711 ± 0.0005. For the same compound, the refractive index ([2]; 303.15 K, x1 = 0.6772) was 1.4761 ± 0.0005, the refractive index ([2]; 303.15 K, x1 = 0.7447) was 1.4835 ± 0.0005 and the refractive index ([2]; 303.15 K, x1 = 0.8245) was 1.4932 ± 0.0005. For the same compound, the refractive index ([2]; 303.15 K, x1 = 0.8876) was 1.5017 ± 0.0005, the refractive index ([2]; 303.15 K, x1 = 0.9433) was 1.5099 ± 0.0005 and the refractive index ([2]; 303.15 K, x1 = 1) was 1.5189 ± 0.0005. It also gave a refractive index ([2]; 308.15 K, x1 = 0.0745) of 1.4334 ± 0.0005, a refractive index ([2]; 308.15 K, x1 = 0.1337) of 1.436 ± 0.0005 and a refractive index ([2]; 308.15 K, x1 = 0.2017) of 1.4391 ± 0.0005. The refractive index ([2]; 308.15 K, x1 = 0.2741) was 1.443 ± 0.0005, the refractive index ([2]; 308.15 K, x1 = 0.3471) was 1.4473 ± 0.0005 and the refractive index ([2]; 308.15 K, x1 = 0.4139) was 1.4518 ± 0.0005. It also gave a refractive index ([2]; 308.15 K, x1 = 0.4616) of 1.4553 ± 0.0005, a refractive index ([2]; 308.15 K, x1 = 0.5532) of 1.4628 ± 0.0005 and a refractive index ([2]; 308.15 K, x1 = 0.6282) of 1.4697 ± 0.0005. For the same compound, the refractive index ([2]; 308.15 K, x1 = 0.6772) was 1.4747 ± 0.0005, the refractive index ([2]; 308.15 K, x1 = 0.7447) was 1.482 ± 0.0005 and the refractive index ([2]; 308.15 K, x1 = 0.8245) was 1.4917 ± 0.0005. It also gave a refractive index ([2]; 308.15 K, x1 = 0.8876) of 1.5 ± 0.0005, a refractive index ([2]; 308.15 K, x1 = 0.9433) of 1.5082 ± 0.0005 and a refractive index ([2]; 308.15 K, x1 = 1) of 1.5169 ± 0.0005.
